Reference: patent US20030225125A1, “IL-8 receptor antagonists” (SmithKline Beecham Corporation, priority 1999, published 2003)

Target: T1, recombinant human IL-8 type β receptor (Type II, permissive receptor) (Homo sapiens, UniProt P25025)
T1 construct: expressed in transfected cells; host or cells: Chinese hamster ovary (CHO) cells; membrane preparation
T1 sequence (P25025 1-360): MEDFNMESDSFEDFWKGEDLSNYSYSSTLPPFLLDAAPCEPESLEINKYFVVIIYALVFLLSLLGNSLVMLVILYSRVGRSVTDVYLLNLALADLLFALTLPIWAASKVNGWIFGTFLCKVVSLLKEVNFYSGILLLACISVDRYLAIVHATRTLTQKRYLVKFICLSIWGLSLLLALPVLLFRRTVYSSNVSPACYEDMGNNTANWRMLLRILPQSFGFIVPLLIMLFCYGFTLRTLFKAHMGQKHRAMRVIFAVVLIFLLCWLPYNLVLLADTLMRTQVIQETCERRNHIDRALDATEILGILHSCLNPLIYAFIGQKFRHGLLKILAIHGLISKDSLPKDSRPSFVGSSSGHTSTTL
Experiment: IL-8 receptor binding assay, permissive model (125I IL-8 / 125I Gro-α, CHO membranes)
Conditions: recombinant receptor expressed in Chinese hamster ovary cell membranes, compound 0.01 nM to 100 uM
Description: The IL-8, and GRO-α chemokine inhibitory effects of compounds of the present invention were determined by the following in vitro assay:
[^125I] IL-8 (human recombinant) was obtained from Amersham Corp., Arlington Heights, Ill., with specific activity 2000 Ci/mmol. GRO-α was obtained from NEN-New England Nuclear. All other chemicals were of analytical grade. High levels of recombinant human IL-8 type α and β receptors were individually expressed in Chinese hamster ovary cells as described previously (Holmes, et al., Science, 1991, 253, 1278). The Chinese hamster ovary membranes were homogenized according to a previously described protocol (Haour, et al., J Biol Chem., 249 pp 2195-2205 (1974)). Except that the homogenization buffer was changed to 10 mM Tris-HCL, 1 mM MgS04, 0.5 mM EDTA (ethylene-diaminetetra-acetic acid), 1 mMPMSF (α-toluenesulphonyl fluoride), 0.5 mg/L Leupeptin, pH 7.5. Membrane protein concentration was determined using Pierce Co. micro-assay kit using bovine serum albumin as a standard. All assays were performed in a 96-well micro plate format. […] The filter was then dried and counted on the Betaplate liquid scintillation counter. […]

- inhibition in the permissive models for IL-8 receptor inhibition: inactive
Substance: N-(2,4-Dichloro-3-carboxy)-N′-(2,3-dichlorophenyl)urea
